{"source": "ChEMBL document CHEMBL3885881", "about": "“DrugMatrix”", "species": "Rattus norvegicus", "experiment": "DrugMatrix - Regimen: Daily Repeat", "format": "toxicity, organism-based, Sprague-Dawley", "design": "regimen Daily Repeat, gender Male, age 6-8 weeks", "details": "in vivo, po, route oral GAVAGE, vehicle .5 % CMC; for BASOPHIL / EOSINOPHIL / ERYTHROCYTE COUNT / HEMATOCRIT / HEMOGLOBIN / LEUKOCYTE COUNT / LYMPHOCYTE / MEAN CORPUSCULAR HEMOGLOBIN / MEAN CORPUSCULAR HEMOGLOBIN CONCENTRATION / MEAN CORPUSCULAR VOLUME / MONOCYTE / NEUTROPHIL / PLATELET COUNT: tissue Blood; for ALANINE AMINOTRANSFERASE / ALBUMIN / ALKALINE PHOSPHATASE / ASPARTATE AMINOTRANSFERASE / BLOOD UREA NITROGEN / CHLORIDE / CHOLESTEROL / CREATINE PHOSPHOKINASE / CREATININE / GLUCOSE / PHOSPHORUS / POTASSIUM / SODIUM / TOTAL BILIRUBIN / TOTAL PROTEIN: tissue Plasma", "key": {"[1]": {"details": "38 mg/kg, 120 h, dose level Low, time 5 day"}, "[2]": {"details": "269 mg/kg, 72 h, dose level High, time 3 day"}, "[3]": {"details": "269 mg/kg, 120 h, dose level High, time 5 day"}}}
{"smiles": "CCCNC(=O)NS(=O)(=O)c1ccc(Cl)cc1", "note": "[CHLORPROPAMIDE]", "values": [{"measurement": "BASOPHIL", "setting": "[1]", "value": 0, "unit": "%"}, {"measurement": "EOSINOPHIL", "setting": "[1]", "value": 0.33, "unit": "%"}, {"measurement": "ERYTHROCYTE COUNT", "setting": "[1]", "value": 6.28, "unit": "x10E6/uL"}, {"measurement": "HEMATOCRIT", "setting": "[1]", "value": 38.47, "unit": "%"}, {"measurement": "HEMOGLOBIN", "setting": "[1]", "value": 15, "unit": "G/DL"}, {"measurement": "LEUKOCYTE COUNT", "setting": "[1]", "value": 16.07, "unit": "x10E3/uL"}, {"measurement": "LYMPHOCYTE", "setting": "[1]", "value": 86.67, "unit": "%"}, {"measurement": "MEAN CORPUSCULAR HEMOGLOBIN", "setting": "[1]", "value": 23.93, "unit": "pg"}, {"measurement": "MEAN CORPUSCULAR HEMOGLOBIN CONCENTRATION", "setting": "[1]", "value": 39, "unit": "G/DL"}, {"measurement": "MEAN CORPUSCULAR VOLUME", "setting": "[1]", "value": 61.4, "unit": "fL"}, {"measurement": "MONOCYTE", "setting": "[1]", "value": 1.67, "unit": "%"}, {"measurement": "NEUTROPHIL", "setting": "[1]", "value": 11.33, "unit": "%"}, {"measurement": "PLATELET COUNT", "setting": "[1]", "value": 1190.33, "unit": "x10E3/uL"}, {"measurement": "ALANINE AMINOTRANSFERASE", "setting": "[1]", "value": 35.67, "unit": "u/L"}, {"measurement": "ALBUMIN", "setting": "[1]", "value": 3.7, "unit": "G/DL"}, {"measurement": "ALKALINE PHOSPHATASE", "setting": "[1]", "value": 350, "unit": "u/L"}, {"measurement": "ASPARTATE AMINOTRANSFERASE", "setting": "[1]", "value": 61.33, "unit": "u/L"}, {"measurement": "BLOOD UREA NITROGEN", "setting": "[1]", "value": 14.33, "unit": "mg/dL"}, {"measurement": "CHLORIDE", "setting": "[1]", "value": 106.33, "unit": "MEQ/L"}, {"measurement": "CHOLESTEROL", "setting": "[1]", "value": 65, "unit": "mg/dL"}, {"measurement": "CREATINE PHOSPHOKINASE", "setting": "[1]", "value": 140.67, "unit": "u/L"}, {"measurement": "CREATININE", "setting": "[1]", "value": 0.6, "unit": "mg/dL"}, {"measurement": "GLUCOSE", "setting": "[1]", "value": 178, "unit": "mg/dL"}, {"measurement": "PHOSPHORUS", "setting": "[1]", "value": 11, "unit": "mg/dL"}, {"measurement": "POTASSIUM", "setting": "[1]", "value": 6.43, "unit": "MEQ/L"}, {"measurement": "SODIUM", "setting": "[1]", "value": 149.33, "unit": "MEQ/L"}, {"measurement": "TOTAL BILIRUBIN", "setting": "[1]", "value": 0.37, "unit": "mg/dL"}, {"measurement": "TOTAL PROTEIN", "setting": "[1]", "value": 6.1, "unit": "G/DL"}, {"measurement": "BASOPHIL", "setting": "[2]", "value": 0, "unit": "%"}, {"measurement": "EOSINOPHIL", "setting": "[2]", "value": 0.33, "unit": "%"}, {"measurement": "ERYTHROCYTE COUNT", "setting": "[2]", "value": 6.04, "unit": "x10E6/uL"}, {"measurement": "HEMATOCRIT", "setting": "[2]", "value": 37, "unit": "%"}, {"measurement": "HEMOGLOBIN", "setting": "[2]", "value": 14.33, "unit": "G/DL"}, {"measurement": "LEUKOCYTE COUNT", "setting": "[2]", "value": 8.83, "unit": "x10E3/uL"}, {"measurement": "LYMPHOCYTE", "setting": "[2]", "value": 83.67, "unit": "%"}, {"measurement": "MEAN CORPUSCULAR HEMOGLOBIN", "setting": "[2]", "value": 23.93, "unit": "pg"}, {"measurement": "MEAN CORPUSCULAR HEMOGLOBIN CONCENTRATION", "setting": "[2]", "value": 38.77, "unit": "G/DL"}, {"measurement": "MEAN CORPUSCULAR VOLUME", "setting": "[2]", "value": 61.6, "unit": "fL"}, {"measurement": "MONOCYTE", "setting": "[2]", "value": 2, "unit": "%"}, {"measurement": "NEUTROPHIL", "setting": "[2]", "value": 14, "unit": "%"}, {"measurement": "PLATELET COUNT", "setting": "[2]", "value": 1429, "unit": "x10E3/uL"}, {"measurement": "ALANINE AMINOTRANSFERASE", "setting": "[2]", "value": 26, "unit": "u/L"}, {"measurement": "ALBUMIN", "setting": "[2]", "value": 3.83, "unit": "G/DL"}, {"measurement": "ALKALINE PHOSPHATASE", "setting": "[2]", "value": 312, "unit": "u/L"}, {"measurement": "ASPARTATE AMINOTRANSFERASE", "setting": "[2]", "value": 48.33, "unit": "u/L"}, {"measurement": "BLOOD UREA NITROGEN", "setting": "[2]", "value": 17, "unit": "mg/dL"}, {"measurement": "CHLORIDE", "setting": "[2]", "value": 109.33, "unit": "MEQ/L"}, {"measurement": "CHOLESTEROL", "setting": "[2]", "value": 73, "unit": "mg/dL"}, {"measurement": "CREATINE PHOSPHOKINASE", "setting": "[2]", "value": 142, "unit": "u/L"}, {"measurement": "CREATININE", "setting": "[2]", "value": 0.53, "unit": "mg/dL"}, {"measurement": "GLUCOSE", "setting": "[2]", "value": 163.33, "unit": "mg/dL"}, {"measurement": "PHOSPHORUS", "setting": "[2]", "value": 9.83, "unit": "mg/dL"}, {"measurement": "POTASSIUM", "setting": "[2]", "value": 5.8, "unit": "MEQ/L"}, {"measurement": "SODIUM", "setting": "[2]", "value": 151.33, "unit": "MEQ/L"}, {"measurement": "TOTAL BILIRUBIN", "setting": "[2]", "value": 0.17, "unit": "mg/dL"}, {"measurement": "TOTAL PROTEIN", "setting": "[2]", "value": 6.3, "unit": "G/DL"}, {"measurement": "BASOPHIL", "setting": "[3]", "value": 0, "unit": "%"}, {"measurement": "EOSINOPHIL", "setting": "[3]", "value": 0, "unit": "%"}, {"measurement": "ERYTHROCYTE COUNT", "setting": "[3]", "value": 5.62, "unit": "x10E6/uL"}, {"measurement": "HEMATOCRIT", "setting": "[3]", "value": 33.9, "unit": "%"}, {"measurement": "HEMOGLOBIN", "setting": "[3]", "value": 14.07, "unit": "G/DL"}, {"measurement": "LEUKOCYTE COUNT", "setting": "[3]", "value": 10.7, "unit": "x10E3/uL"}, {"measurement": "LYMPHOCYTE", "setting": "[3]", "value": 76.67, "unit": "%"}, {"measurement": "MEAN CORPUSCULAR HEMOGLOBIN", "setting": "[3]", "value": 25.07, "unit": "pg"}, {"measurement": "MEAN CORPUSCULAR HEMOGLOBIN CONCENTRATION", "setting": "[3]", "value": 41.53, "unit": "G/DL"}, {"measurement": "MEAN CORPUSCULAR VOLUME", "setting": "[3]", "value": 60.37, "unit": "fL"}, {"measurement": "MONOCYTE", "setting": "[3]", "value": 2.33, "unit": "%"}, {"measurement": "NEUTROPHIL", "setting": "[3]", "value": 21, "unit": "%"}, {"measurement": "PLATELET COUNT", "setting": "[3]", "value": 995.67, "unit": "x10E3/uL"}, {"measurement": "ALANINE AMINOTRANSFERASE", "setting": "[3]", "value": 34.67, "unit": "u/L"}, {"measurement": "ALBUMIN", "setting": "[3]", "value": 3.7, "unit": "G/DL"}, {"measurement": "ALKALINE PHOSPHATASE", "setting": "[3]", "value": 315.33, "unit": "u/L"}, {"measurement": "ASPARTATE AMINOTRANSFERASE", "setting": "[3]", "value": 55.33, "unit": "u/L"}, {"measurement": "BLOOD UREA NITROGEN", "setting": "[3]", "value": 16.33, "unit": "mg/dL"}, {"measurement": "CHLORIDE", "setting": "[3]", "value": 112.33, "unit": "MEQ/L"}, {"measurement": "CHOLESTEROL", "setting": "[3]", "value": 71.33, "unit": "mg/dL"}, {"measurement": "CREATINE PHOSPHOKINASE", "setting": "[3]", "value": 127.33, "unit": "u/L"}, {"measurement": "CREATININE", "setting": "[3]", "value": 0.6, "unit": "mg/dL"}, {"measurement": "GLUCOSE", "setting": "[3]", "value": 173.33, "unit": "mg/dL"}, {"measurement": "PHOSPHORUS", "setting": "[3]", "value": 10.27, "unit": "mg/dL"}, {"measurement": "POTASSIUM", "setting": "[3]", "value": 5.83, "unit": "MEQ/L"}, {"measurement": "SODIUM", "setting": "[3]", "value": 155, "unit": "MEQ/L"}, {"measurement": "TOTAL BILIRUBIN", "setting": "[3]", "value": 0.23, "unit": "mg/dL"}, {"measurement": "TOTAL PROTEIN", "setting": "[3]", "value": 6.1, "unit": "G/DL"}]}
